Results as given in patent US6908897B2, “Covalently bridged insulin dimers” (Aventis Pharma Deutschland GmbH, priority 1999, dated 2005).

Experiments:
insulin receptors = target: T1, insulin receptors (Homo sapiens, UniProt P06213); test: Receptor binding by displacement studies on IM-9 lymphocytes; conditions: compared with native insulin
T1 construct: endogenous in cells; host or cells: IM-9 lymphocytes
Experimental: (§1) The receptor binding was determined by displacement studies on IM-9 lymphocytes. The relative biological activity was determined on cultivated 3T3-L1 adipocytes in the form of the glucose transport.

3T3-L1 adipocytes = test: Relative biological activity as glucose transport in cultivated 3T3-L1 adipocytes; format: cell-based; conditions: compared with native insulin
Experimental: as §1

[1] = literature value; cited from earlier work

T1 sequence (P06213 28-758 limits assumed): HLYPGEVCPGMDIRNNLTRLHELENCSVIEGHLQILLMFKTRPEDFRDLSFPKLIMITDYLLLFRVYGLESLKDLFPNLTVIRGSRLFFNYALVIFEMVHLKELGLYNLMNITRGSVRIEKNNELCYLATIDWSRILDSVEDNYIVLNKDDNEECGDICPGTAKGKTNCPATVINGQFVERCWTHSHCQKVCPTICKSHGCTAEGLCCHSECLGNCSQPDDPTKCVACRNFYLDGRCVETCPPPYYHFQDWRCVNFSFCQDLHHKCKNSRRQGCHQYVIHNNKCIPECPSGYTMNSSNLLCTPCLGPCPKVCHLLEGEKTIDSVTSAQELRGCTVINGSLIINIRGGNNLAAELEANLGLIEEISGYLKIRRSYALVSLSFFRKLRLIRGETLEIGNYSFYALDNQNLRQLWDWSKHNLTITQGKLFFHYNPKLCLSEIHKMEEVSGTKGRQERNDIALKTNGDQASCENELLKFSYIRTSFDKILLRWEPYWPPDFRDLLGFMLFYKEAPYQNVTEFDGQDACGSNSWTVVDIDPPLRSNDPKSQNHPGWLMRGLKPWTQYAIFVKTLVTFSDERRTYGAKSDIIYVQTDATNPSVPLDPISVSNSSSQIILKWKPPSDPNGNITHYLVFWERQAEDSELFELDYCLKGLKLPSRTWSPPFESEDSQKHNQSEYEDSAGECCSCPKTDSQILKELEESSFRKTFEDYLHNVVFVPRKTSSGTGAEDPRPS
T1 sequence (P06213 763-1382 partner limits assumed): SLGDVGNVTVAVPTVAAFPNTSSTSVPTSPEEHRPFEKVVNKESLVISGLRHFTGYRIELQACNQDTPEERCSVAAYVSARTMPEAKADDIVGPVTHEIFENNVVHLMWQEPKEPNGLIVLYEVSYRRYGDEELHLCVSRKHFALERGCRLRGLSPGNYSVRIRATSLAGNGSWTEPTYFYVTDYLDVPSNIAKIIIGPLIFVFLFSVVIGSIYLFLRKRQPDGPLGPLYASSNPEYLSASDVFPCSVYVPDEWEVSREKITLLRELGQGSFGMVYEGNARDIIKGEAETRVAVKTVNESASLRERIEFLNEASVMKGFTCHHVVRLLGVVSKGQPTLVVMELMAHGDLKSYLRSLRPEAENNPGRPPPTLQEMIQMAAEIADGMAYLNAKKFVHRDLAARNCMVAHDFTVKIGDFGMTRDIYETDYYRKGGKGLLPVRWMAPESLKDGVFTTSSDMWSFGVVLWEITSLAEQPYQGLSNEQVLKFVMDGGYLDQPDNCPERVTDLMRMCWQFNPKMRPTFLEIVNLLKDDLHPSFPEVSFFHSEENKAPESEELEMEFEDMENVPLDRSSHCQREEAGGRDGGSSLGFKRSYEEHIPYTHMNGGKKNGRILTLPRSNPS

Rel. receptor binding (insulin receptors) [%] | Substance | Rel. biol. activity (3T3-L1 adipocytes) [%] | bioactivity in vitro [1] [%]
176 ± 45.8 | B1,B1′-Sub-[Glu^B26}-des-(B27-B30)-insulin-B26-amide Insulin Dimer | 817.5 ± 224 | –
412 ± 94.8 | B1,B1′-Sub-[Sar^B26]-des-(B27-B30)-insulin-B26-amide Insulin Dimer | 1957 ± 575 | –
– | B1,B1′-suberoyl-insulin dimer | – | 28.8
